Experimental data: US20170071990A1 (Pizeta Group Srl, priority 2014, published 2017)

What was measured:
[1] = test system: Lactobacillus rhamnosus; settings: L. rhamnosus single culture, 24 hours at 37° C., 5% CO2, 0.625% boric acid; MRS without boric acid 7.45 × 10^6
[2] = test system: Lactobacillus jensenii; settings: L. jensenii single culture, 24 hours at 37° C., 5% CO2, 0.625% boric acid; MRS without boric acid 7.63 × 10^6
[3] = test system: Candida albicans; settings: summary statement of the description
[4] = test system: Candida albicans; settings: cited from earlier work
[5] = test system: mixture of four lactobacilli; settings: mix of four lactobacilli, 24 hours at 37° C., 5% CO2, 0.625% boric acid; MRS without boric acid 7.63 × 10^6
[6] = test system: Gardnerella vaginalis; settings: summary statement of the description
[7] = test system: Lactobacillus gasseri; settings: L. gasseri single culture, 24 hours at 37° C., 5% CO2, 0.625% boric acid; MRS without boric acid 7.28 × 10^6
[8] = vaginal suppositories 600 mg/ovule, throughout the duration of the treatment; cited from earlier work
[9] = test system: lactobacilli tested, either alone or in combination; settings: 0.625% boric acid
[10] = test system: Lactobacillus crispatus; settings: L. crispatus single culture, 24 hours at 37° C., 5% CO2, 0.625% boric acid; MRS without boric acid 1.19 × 10^7
[11] = low concentrations, non-therapeutic doses, first 24 hours

**Q.** What does the source list for `OB(O)O` [boric acid]?
**A.** lactobacilli culture count, MRS with boric acid [1]: 3.17 × 10^6; lactobacilli culture count, MRS with boric acid [2]: 7.47 × 10^6; activity against Candida albicans [3]: good activity; pH at which the substance completely inhibits the growth of Candida albicans ([4]; in vitro tests): 5-5.9; cellular ergosterol [4, 11]: decrease; inhibition of the micro-organisms growth, planktonic and biofilm form [4, 11]: moderate inhibition; lactobacilli culture count, MRS with boric acid [5]: 7.40 × 10^6; activity against Gardnerella vaginalis [6]: poor activity; lactobacilli culture count, MRS with boric acid [7]: 2.37 × 10^6; circulation levels of boric acid [8]: under 1 μg/ml; inhibitory effect on the growth of the lactobacilli [9]: no inhibitory effect; lactobacilli culture count, MRS with boric acid [10]: 6.29 × 10^6
